Values after ≈ are worked out from the molar mass of the structure shown. “Also recorded” adds a separate entry of the source. Read-outs that look alike come from different tables or passages of the source.
Legend:
[1] = In vivo PK after subcutaneous application (50% ClearSol/PBS pH 7.4); design: species or system mouse; conditions: for Cz / tz / AUC(0-t) / Cmax / Tmax: n = 3; for AUC(0-t) / Cmax / Tmax: mouse, in vivo
Experimental: Dehalogenil was further applied subcutaneously at 5, 10 and 25 mg/kg in 50% ClearSol™/PBS pH 7.4.

Plasma stability = format: in vitro ADME; conditions: for half-life: plasma, read-out: plasma stability t1/2 (converted)
Experimental: (§1) Complementing the toxicity profiling, ADME properties of the lead dehalogenil were determined. This had not been possible for the first generation frontrunner ChB1-Epo2 or the natural product ChA because of their poor limit of detection. […] Across species (mouse, rat, human), metabolic stability is high while plasma stability is moderate. Besides, no hemolysis and no inhibition of the metabolically important enzyme CYP3A4 was observed by both dehalogenil and ChA. Plasma protein binding (PPB) is >99.4% in all species.

[2] = Plasma protein binding (PPB); format: in vitro ADME
Experimental: as §1

S. aureus USA300LAC = assay: S. aureus blood infection (sepsis) model; format: in vivo, mouse (CD-1); conditions: for survival: BID, until 3 days post infection
Experimental: Dehalogenil was further tested in a Staphylococcus blood infection (sepsis) model, alongside linezolid as reference compound. Mice were infected using S. aureus USA300LAC (10^8 CFU/animal) and subsequently treated with a daily total of 5, 10 or 25 mg/kg SC dehalogenil, split into two doses (8 h interval, BID regimen) until 3 days post infection.
Mice were infected intravenously using S. aureus USA300LAC (10^8 CFU/mice). Compounds were administered twice daily starting day 0 until day 3, with the daily total dose indicated. Curves were compared via Mantel-Cox test (Prism), with ***: p<0.001 and **: p<0.01.

Aqueous solubility = format: physicochemical; conditions: for solubility thermodynamic: read-out: semi thermodynamic solubility
Experimental: as §1

zebrafish larvae = assay: Toxicity in zebrafish larvae (MTC / IC50); format: in vivo
Experimental: For toxicity screening, zebrafish larvae were exposed three days post fertilization and monitored for 48 h until five days post fertilization. All malformations and pathophysiological phenotypes were noted and used to determine the inhibitory concentration (IC50) of the respective derivative against zebrafish larvae. The selectivity index (SI) was then calculated using the IC50 and the MIC of either S. aureus or P. falciparum 3D7.

[3] = tested on: mature gametocytes (stages IV and V); assay: Activity against mature gametocytes (stage IV-V), bioluminescence assay; format: cell-based, P. falciparum
Experimental: Activity against gametocytes was determined using an in vitro bioluminescence assay as described previously (doi.org/10.1371/journal.pone.0035019).

E. faecalis ATCC-29212 = assay: MIC testing (broth microdilution, EUCAST); format: cell-based; conditions: Enterococcus faecalis, ATCC29212, E. faecalis ATCC-29212
Experimental: (§2) Minimal inhibitory concentration (MIC) of the compounds in the present invention was determined using broth microdilution performed according to EUCAST guidelines (ISO20776-1:2019). S. aureus ATCC29213 and E. faecalis ATCC29212 served as quality control strains.

S. aureus Newman [4] = assay: MIC testing (broth microdilution, EUCAST); format: cell-based
Experimental: as §2

[5] = tested on: E. faecium DSM-17050 (vancomycin-resistant, VRE); assay: MIC testing (broth microdilution, EUCAST); format: cell-based; conditions: Enterococcus faecium
Experimental: as §2

S. epidermidis DSM-28765 = assay: MIC testing (broth microdilution, EUCAST); format: cell-based; conditions: Staphylococcus epidermidis, DSM28765, S. epidermidis DSM-28765; read-out: MIC S. epiderm.
Experimental: as §2

[6] = tested on: S. aureus N315 (methicillin-resistant, MRSA); assay: MIC testing (broth microdilution, EUCAST); format: cell-based; conditions: Staphylococcus aureus, MRSA
Experimental: as §2

E. faecium DSM-20477 = assay: MIC testing (broth microdilution, EUCAST); format: cell-based; conditions: Enterococcus faecium, DSM20477, E. faecium DSM-20477
Experimental: as §2

S. aureus Newman [7] = assay: MIC in presence of fetal bovine serum (FBS); format: cell-based; conditions: for MIC: Staphylococcus aureus, NEWMAN, read-out: MIC against S. aureus Newman
Experimental: as §2

P. berghei = P. berghei parasite load in mice; format: in vivo, mouse
[8] = Plasma protein binding (PPB); format: in vitro ADME, rat
Experimental: as §1

With CC1=CC(C)C2C(C=CC3C(C)C=CC=CC(C)OC(=O)C(C)C(=O)CC(=O)C32)C1 (stereo not drawn) [dehalogenil] the Cz ([1]; mice, 5 mg/kg sc) was 109.0 ng/mL, the tz ([1]; mice, 5 mg/kg sc) was 24.0 h and the Cz ([1]; mice, 10 mg/kg sc) was 257.0 ng/mL. For the same compound, the tz ([1]; mice, 10 mg/kg sc) was 24.0 h, the “Plasma levels, subcutaneous vs intravenous” value ([1]; mice, 25 mg/kg sc vs 7.5 mg/kg iv) was “comparable to 7.5 mg/kg dehalogenil applied intravenously” and the Cz ([1]; mice, 25 mg/kg sc) was 595 ng/mL. The tz ([1]; mice, 25 mg/kg sc) was 24.0 h, the “Dose response after subcutaneous application” value ([1]; mice, 5, 10 and 25 mg/kg sc) was “suitable dose response” and the AUC(0-t) ([1]; mice, 5 mg/kg sc) was 2690 ng·h/mL. The Cmax ([1]; mice, 5 mg/kg sc) was 125 ng/mL, the Tmax ([1]; mice, 5 mg/kg sc) was 7 h and the AUC(0-t) ([1]; mice, 10 mg/kg sc) was 8090 ng·h/mL. It also gave a Cmax ([1]; mice, 10 mg/kg sc) of 488 ng/mL, a Tmax ([1]; mice, 10 mg/kg sc) of 3 h and an AUC(0-t) ([1]; mice, 25 mg/kg sc) of 18500 ng·h/mL. The Cmax ([1]; mice, 25 mg/kg sc) was 1200 ng/mL, the Tmax ([1]; mice, 25 mg/kg sc) was 3 h and the plasma stability (Plasma stability; human) was “moderate”. For the same compound, the half-life (Plasma stability; human) was 1.4 h, the plasma stability (Plasma stability; mouse) was “moderate” and the half-life (Plasma stability; mouse) was 1.5 h. For the same compound, the plasma stability (Plasma stability; rat) was “moderate”, the half-life (Plasma stability; rat) was 1.2 h and the fraction unbound ([2]; human, all species: human, read-out: Plasma protein binding (PPB)) was under 0.006. The fraction unbound ([2]; human, read-out: plasma protein binding) was under 0.004, the fraction unbound ([2]; mouse, all species: mouse, read-out: Plasma protein binding (PPB)) was under 0.006 and the fraction unbound ([2]; mouse, read-out: plasma protein binding) was under 0.002. For the same compound, the survival (S. aureus USA300LAC; 10 mg/kg daily total SC) was 80%, the survival (S. aureus USA300LAC; 25 mg/kg daily total SC) was 90% and the “survival rates compared to linezolid” value (S. aureus USA300LAC; 10 and 25 mg/kg SC vs linezolid 60 mg/kg) was “increased survival rates comparable to a higher dose of linezolid”. The solubility thermodynamic (Aqueous solubility; pH 5.0) was 34.9 ± 2.7 µM (≈ 14.3 µg/mL), the solubility thermodynamic (Aqueous solubility; pH 7.4) was 41.4 ± 10.3 µM (≈ 17 µg/mL) and the “Solubility increase compared to the natural product ChA” value (Aqueous solubility; pH 7.4, vs ChA) was “more than 500 fold”. The solubility thermodynamic (Aqueous solubility; pH 9.0) was 16.5 ± 8.7 µM (≈ 6.77 µg/mL), the “Solubility compared to ChB1-Epo2” value (Aqueous solubility; vs ChB1-Epo2, aqueous) was “more than doubled; also recorded: doubled aqueous solubility” and the “toxic effects in zebrafish” value (zebrafish larvae; 5-10 μg/mL) was “no toxic effects”. For the same compound, the “IC50 in zebrafish larvae” value (zebrafish larvae; exposed 3 days post fertilization, monitored 48 h) was 27400 nM, the “Selectivity Index S. aureus” value (zebrafish larvae; zebrafish IC50 / MIC S. aureus Newman) was 224.8 and the “Selectivity Index P. falc 3D7” value (zebrafish larvae; zebrafish IC50 vs P. falciparum 3D7) was 5479.6. The IC50 [3] was 5.8 nM, the MIC (E. faecalis ATCC-29212) was 0.1 µg/mL (≈ 0.244 µM) and the “MIC S. aureus” value (S. aureus Newman [4]) was 0.05 µg/mL (≈ 0.122 µM). The MIC [5] was 0.1 µg/mL (≈ 0.244 µM), the MIC (S. epidermidis DSM-28765) was 0.2 µg/mL (≈ 0.487 µM) and the MIC [6] was 0.05 µg/mL (≈ 0.122 µM). For the same compound, the MIC (E. faecium DSM-20477) was 0.025 µg/mL (≈ 0.0609 µM), the MIC (S. aureus Newman [7]; MHB2 + 5% FBS) was 2 µg/mL and the MIC (S. aureus Newman [7]; MHB2 + 10% FBS) was 4 µg/mL. It also gave an MIC (S. aureus Newman [7]; MHB2 + 20% FBS) of 4 µg/mL, an MIC (S. aureus Newman [7]; MHB2 + 30% FBS) of 8 µg/mL and an MIC (S. aureus Newman [7]; MHB2 + 40% FBS) of 8 µg/mL. For the same compound, the MIC (S. aureus Newman [7]; MHB2 + 50% FBS) was over 8 µg/mL, the MIC (S. aureus Newman [7]; MHB2, no FBS) was 0.0625 µg/mL and the “Activity in presence of FBS” value (S. aureus Newman [7]; above 20% FBS) was “remained active above 20% FBS”. The “reduction of P. berghei parasite load” value (P. berghei) was over 99%, the fraction unbound ([8]; plasma, all species: rat) was under 0.006 and the plasma protein binding ([8]; rat) was over 99.4%.

— US20260335277A1, “CHLOROTONIL DERIVATIVES” (priority 2023, published 2026)
